We go through two compounds from patent publication US20070117770A1, “Human ribosomal DNA (rDNA) and ribosomal RNA (rRNA) nucleic acids and uses thereof” (Cylene Pharmaceuticals, Inc., priority 2005, published 2007).

Common to all, as to test: Protein kinase inhibition assay
Common to all, as to assay type: biochemical

The target in one test is ErbB4(h) (Homo sapiens, UniProt Q15303). The conditions noted are these: read-out: percent residual activity of ErbB4(h). How it is done: (§1) Certain compounds were tested for activity in protein kinase inhibition assays. All substrates were dissolved and diluted to working stocks in de-ionized water, apart from histone H1 (10× working stock in 20 mM MOPS pH 7.0), PDKtide (10× working stock in 50 mM Tris pH 7.0) ATF2 (which is typically stored at a 20× working stock in 50 mM Tris pH 7.5, 150 mM NaCl, 0.1 mM EGTA, 0.03% Brij-35, 50% glycerol, 1 mM benzamidine, 0.2 mM PMSF and 0.1% R-mercaptoethanol), KKLNRTLSFAEPG (SEQ ID NO:203) and RRRLSFAEPG (SEQ ID NO:204) (50 mM HEPES pH 7.4) and GGEEEEYFELVKKKK (SEQ ID NO:205) (20 mM MOPS pH 7.0). All kinases were pre-diluted to a 10× working concentration prior to addition into the assay. The composition of the dilution buffer for each kinase is detailed below.
Chain of ErbB4(h) (Q15303 26-1308): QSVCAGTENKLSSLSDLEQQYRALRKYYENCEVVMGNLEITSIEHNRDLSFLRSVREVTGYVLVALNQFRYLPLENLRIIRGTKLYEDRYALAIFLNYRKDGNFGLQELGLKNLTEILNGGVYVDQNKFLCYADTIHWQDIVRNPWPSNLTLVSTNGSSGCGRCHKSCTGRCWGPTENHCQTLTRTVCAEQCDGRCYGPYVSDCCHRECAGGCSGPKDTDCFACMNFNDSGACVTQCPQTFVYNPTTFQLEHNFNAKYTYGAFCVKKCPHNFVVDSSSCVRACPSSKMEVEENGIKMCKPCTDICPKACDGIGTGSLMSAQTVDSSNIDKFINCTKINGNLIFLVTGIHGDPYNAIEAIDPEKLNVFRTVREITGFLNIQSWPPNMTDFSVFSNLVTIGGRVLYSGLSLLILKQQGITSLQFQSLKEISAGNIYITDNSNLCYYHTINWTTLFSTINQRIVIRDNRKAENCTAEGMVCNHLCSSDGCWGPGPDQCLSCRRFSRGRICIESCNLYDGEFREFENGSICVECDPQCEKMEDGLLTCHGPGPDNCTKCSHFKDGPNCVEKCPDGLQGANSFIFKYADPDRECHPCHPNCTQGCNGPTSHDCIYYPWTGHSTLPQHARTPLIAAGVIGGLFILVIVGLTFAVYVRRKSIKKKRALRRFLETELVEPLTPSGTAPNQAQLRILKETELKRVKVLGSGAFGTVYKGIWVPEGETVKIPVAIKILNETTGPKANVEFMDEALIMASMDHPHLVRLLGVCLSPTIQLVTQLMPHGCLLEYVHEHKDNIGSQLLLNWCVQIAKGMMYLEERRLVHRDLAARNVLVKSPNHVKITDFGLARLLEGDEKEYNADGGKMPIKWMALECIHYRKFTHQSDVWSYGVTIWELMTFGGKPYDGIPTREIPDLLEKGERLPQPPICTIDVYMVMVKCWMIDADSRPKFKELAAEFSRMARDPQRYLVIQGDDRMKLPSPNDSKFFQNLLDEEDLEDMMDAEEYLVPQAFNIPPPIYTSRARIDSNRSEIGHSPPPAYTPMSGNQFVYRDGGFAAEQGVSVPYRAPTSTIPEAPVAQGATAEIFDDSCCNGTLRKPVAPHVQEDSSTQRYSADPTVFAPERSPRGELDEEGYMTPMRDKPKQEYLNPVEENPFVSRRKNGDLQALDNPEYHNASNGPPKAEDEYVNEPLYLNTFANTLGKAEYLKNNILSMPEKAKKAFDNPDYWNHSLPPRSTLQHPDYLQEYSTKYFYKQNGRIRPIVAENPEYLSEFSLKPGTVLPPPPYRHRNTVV
(§2) In a final reaction volume of 25 μl, ErbB4 (h) (5-10 mU) is incubated with 8 mM MOPS pH 7.0, 0.2 mM EDTA, 2.5 mM MnCl2, 0.1 mg/ml poly(Glu, Tyr) 4:1, 10 mM MgAcetate and [gamma-33P-ATP] (specific activity approx. 500 cpm/pmol, concentration as required). The reaction is initiated by the addition of the MgATP mix. After incubation for 40 minutes at room temperature, the reaction is stopped by the addition of 5 μl of a 3% phosphoric acid solution. 10 ll of the reaction is then spotted onto a Filtermat A and washed three times for 5 minutes in 75 mM phosphoric acid and once in methanol prior to drying and scintillation counting.

A further test concerns the target PKCβI(h) (Homo sapiens, UniProt P05771). The conditions noted are these: read-out: percent residual activity of PKCβI(h). How it is done: as §1
In a final reaction volume of […], PKCβI (h) (5-10 mU) is incubated with 20 mM HEPES pH 7.4, 0.03% Triton X-100, 0.1 mM CaCl2, 0.1 mg/ml phosphatidylserine, 10 μg/ml diacylglycerol, 0.1 mg/ml histone H1, 10 mM MgAcetate and [gamma-33P-ATP] (specific activity approx. 500 cpm/pmol, concentration as required). The reaction is initiated by the addition of the MgATP mix. After incubation for 40 minutes at room temperature, the reaction is stopped by the addition of 5 μl of a 3% phosphoric acid solution. […]

Another test concerns the target PKCμ(h) (Homo sapiens, UniProt Q15139). The following applies: read-out: percent residual activity of PKCμ(h). As to the method:
as §1
as §2, with “μl, PKCμ” for “μl, ErbB4”, “with 20” for “with 8”, “mM REPES” for “mM MOPS”, “pH 7.4, 0.03% Triton X-100, 30 μM KKLNRTLSVA (SEQ ID NO:212),” for “pH 7.0, 0.2 mM EDTA, 2.5 mM MnCl2, 0.1 mg/ml poly(Glu, Tyr) 4:1,”, “10 μl” for “10 ll”, “a P30 filtermat” for “a Filtermat A”

For another test, the target named is Rsk3(h) (Homo sapiens, UniProt Q15349). The following applies: read-out: percent residual activity of Rsk3(h). How it is done:
as §1
as §2, with “μl, Rsk3” for “μl, ErbB4”, “EDTA, 30 μM KKKNRTLSVA (SEQ ID NO:212),” for “EDTA, 2.5 mM MnCl2, 0.1 mg/ml poly(Glu, Tyr) 4:1,”, “10 μl” for “10 ll”, “a P30 filtermat” for “a Filtermat A”

The target of the next test is Snk(h) (Homo sapiens, UniProt Q9NYY3). The conditions noted are these: read-out: percent residual activity of Snk(h). How it is done:
as §1
as §2, with “μl, Snk” for “μl, ErbB4”, “EDTA, 2” for “EDTA, 2.5 mM MnCl2, 0.1”, “mg/ml casein,” for “mg/ml poly(Glu, Tyr) 4:1,”, “10 μl” for “10 ll”, “a P30 filtermat” for “a Filtermat A”

For the next test, the target named is TSSK2(h) (Homo sapiens, UniProt Q96PF2). The conditions noted are these: read-out: percent residual activity of TSSK2(h). As to the method: as §1
Chain of TSSK2(h) (Q96PF2 whole entry): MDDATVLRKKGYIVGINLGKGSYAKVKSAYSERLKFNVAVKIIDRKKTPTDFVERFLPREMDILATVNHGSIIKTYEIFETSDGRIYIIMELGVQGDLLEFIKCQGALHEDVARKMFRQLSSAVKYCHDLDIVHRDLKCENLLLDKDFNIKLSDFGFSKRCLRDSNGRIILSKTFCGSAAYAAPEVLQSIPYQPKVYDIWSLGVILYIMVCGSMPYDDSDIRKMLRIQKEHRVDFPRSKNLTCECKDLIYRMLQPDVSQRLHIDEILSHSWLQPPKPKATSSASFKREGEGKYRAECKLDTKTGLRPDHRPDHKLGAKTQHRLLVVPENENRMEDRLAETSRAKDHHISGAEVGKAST
as §2, with “μl, TSSK2” for “μl, ErbB4”, “EDTA, 100 μM […] (SEQ ID NO:213),” for “EDTA, 2.5 mM MnCl2, 0.1 mg/ml poly(Glu, Tyr) 4:1,”, “and [y-33P-ATP]” for “and [gamma-33P-ATP]”, “10 μl” for “10 ll”, “a P30 filtermat” for “a Filtermat A”

Chain of PKCβI(h) (P05771 whole entry): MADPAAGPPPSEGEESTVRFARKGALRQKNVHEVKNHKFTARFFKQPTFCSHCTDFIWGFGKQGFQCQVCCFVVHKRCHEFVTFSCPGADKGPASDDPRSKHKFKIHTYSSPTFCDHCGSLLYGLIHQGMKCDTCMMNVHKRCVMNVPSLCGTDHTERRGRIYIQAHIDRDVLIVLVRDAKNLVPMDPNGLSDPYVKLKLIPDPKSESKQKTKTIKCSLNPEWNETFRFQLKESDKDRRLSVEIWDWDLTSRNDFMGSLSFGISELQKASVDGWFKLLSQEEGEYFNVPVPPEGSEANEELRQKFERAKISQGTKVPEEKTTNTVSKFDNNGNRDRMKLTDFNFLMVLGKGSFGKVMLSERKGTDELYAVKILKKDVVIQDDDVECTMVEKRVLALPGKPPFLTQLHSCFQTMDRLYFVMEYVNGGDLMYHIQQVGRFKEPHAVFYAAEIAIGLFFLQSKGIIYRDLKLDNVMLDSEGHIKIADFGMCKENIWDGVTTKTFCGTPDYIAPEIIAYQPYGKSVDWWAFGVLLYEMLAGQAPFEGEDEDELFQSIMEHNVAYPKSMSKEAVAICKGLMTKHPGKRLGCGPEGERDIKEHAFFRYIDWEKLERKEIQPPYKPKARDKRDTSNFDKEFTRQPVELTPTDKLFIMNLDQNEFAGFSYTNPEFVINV
Chain of Rsk3(h) (Q15349 whole entry): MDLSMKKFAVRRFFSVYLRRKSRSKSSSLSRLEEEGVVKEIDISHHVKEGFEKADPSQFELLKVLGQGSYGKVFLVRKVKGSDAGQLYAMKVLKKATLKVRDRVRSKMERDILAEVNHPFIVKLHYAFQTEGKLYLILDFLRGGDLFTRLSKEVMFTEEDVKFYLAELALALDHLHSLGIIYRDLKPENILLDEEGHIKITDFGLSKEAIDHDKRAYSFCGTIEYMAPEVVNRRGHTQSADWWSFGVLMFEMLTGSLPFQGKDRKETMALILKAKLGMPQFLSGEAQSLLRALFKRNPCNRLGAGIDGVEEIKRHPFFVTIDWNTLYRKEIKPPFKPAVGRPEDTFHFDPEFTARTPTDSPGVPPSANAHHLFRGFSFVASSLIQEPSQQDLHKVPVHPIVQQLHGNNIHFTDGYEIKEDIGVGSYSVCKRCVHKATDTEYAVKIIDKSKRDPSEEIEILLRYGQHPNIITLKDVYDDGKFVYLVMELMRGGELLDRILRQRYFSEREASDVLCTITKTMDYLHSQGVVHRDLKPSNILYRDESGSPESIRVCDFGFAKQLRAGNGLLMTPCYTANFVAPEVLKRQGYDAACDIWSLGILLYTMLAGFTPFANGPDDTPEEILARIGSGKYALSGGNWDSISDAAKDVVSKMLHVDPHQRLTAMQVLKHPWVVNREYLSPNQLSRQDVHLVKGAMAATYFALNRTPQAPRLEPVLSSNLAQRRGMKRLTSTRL
Chain of Snk(h) (Q9NYY3 whole entry): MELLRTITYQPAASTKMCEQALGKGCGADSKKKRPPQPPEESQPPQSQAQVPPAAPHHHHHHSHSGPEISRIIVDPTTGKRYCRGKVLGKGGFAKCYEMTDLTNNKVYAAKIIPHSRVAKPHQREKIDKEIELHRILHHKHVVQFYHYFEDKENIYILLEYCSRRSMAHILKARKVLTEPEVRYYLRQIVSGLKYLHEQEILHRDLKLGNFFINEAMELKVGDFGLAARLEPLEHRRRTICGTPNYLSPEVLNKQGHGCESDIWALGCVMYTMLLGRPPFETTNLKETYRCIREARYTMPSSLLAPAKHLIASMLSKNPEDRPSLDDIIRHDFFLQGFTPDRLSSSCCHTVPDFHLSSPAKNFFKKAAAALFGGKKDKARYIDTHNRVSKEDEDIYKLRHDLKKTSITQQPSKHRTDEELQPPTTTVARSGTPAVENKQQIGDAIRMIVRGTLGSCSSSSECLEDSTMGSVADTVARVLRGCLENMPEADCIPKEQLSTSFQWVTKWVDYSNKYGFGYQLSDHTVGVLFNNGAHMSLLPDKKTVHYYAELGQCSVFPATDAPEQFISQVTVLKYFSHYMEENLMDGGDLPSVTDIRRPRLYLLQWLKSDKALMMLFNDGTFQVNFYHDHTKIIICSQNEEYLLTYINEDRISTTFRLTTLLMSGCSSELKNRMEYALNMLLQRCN
Chain of PKCμ(h) (Q15139 whole entry): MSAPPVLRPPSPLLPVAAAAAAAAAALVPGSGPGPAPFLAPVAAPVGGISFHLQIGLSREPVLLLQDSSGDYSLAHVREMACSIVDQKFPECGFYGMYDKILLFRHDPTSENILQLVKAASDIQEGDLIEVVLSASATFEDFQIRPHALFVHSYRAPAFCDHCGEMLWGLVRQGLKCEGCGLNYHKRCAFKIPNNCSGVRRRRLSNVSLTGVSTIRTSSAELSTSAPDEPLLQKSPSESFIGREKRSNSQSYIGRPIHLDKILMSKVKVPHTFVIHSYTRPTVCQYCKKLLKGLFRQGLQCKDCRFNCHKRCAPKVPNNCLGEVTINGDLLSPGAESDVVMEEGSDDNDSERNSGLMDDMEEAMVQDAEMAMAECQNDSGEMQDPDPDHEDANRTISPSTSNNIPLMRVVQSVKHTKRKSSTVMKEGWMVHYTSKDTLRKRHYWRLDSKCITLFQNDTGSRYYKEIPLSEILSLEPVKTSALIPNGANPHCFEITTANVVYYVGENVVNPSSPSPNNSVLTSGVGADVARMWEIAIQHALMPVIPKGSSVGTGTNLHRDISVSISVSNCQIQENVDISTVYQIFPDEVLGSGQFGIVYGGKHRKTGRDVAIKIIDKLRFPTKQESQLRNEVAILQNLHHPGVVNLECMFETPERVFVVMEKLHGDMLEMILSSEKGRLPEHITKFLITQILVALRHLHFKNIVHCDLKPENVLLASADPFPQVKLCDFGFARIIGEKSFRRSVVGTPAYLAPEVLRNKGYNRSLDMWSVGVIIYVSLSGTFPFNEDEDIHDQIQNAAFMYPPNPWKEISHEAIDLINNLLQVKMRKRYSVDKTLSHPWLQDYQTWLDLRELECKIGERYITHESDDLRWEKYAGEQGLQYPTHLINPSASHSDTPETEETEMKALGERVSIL

As for `CN1CCCC1CCNC(=O)c1cn2c3c(c(N4CCC(c5cnccn5)C4)c(F)cc3c1=O)Oc1cc3ccccc3cc1-2` (stereo not drawn) [Compound A-1], the remaining activity at 2.5 µM at ErbB4(h) came to 92%; at PKCβI(h) it was 94%; on PKCμ(h), 49%; on Rsk3(h), 89%; at Snk(h), 125%; at TSSK2(h) it was 105%.

For the compound `CC(=O)N1CCN(c2ccc3c(=O)c(C(=O)NCCN4CCCC4)c4n(C)c5ccccc5n4c3n2)CC1` [Compound B-1], the remaining activity at 2.5 µM on ErbB4(h) turned out to be 107%; on PKCβI(h), 97%; at PKCμ(h), 94%; on Rsk3(h) it was 107%; on Snk(h), 125%; at TSSK2(h), 110%.
